# Measured values published in publication PMC8414367, “(E)-7-Ethylidene-lithocholic Acid (7-ELCA) Is a Potent Dual Farnesoid X Receptor (FXR) Antagonist and GPBAR1 Agonist Inhibiting FXR-Induced Gene Expression in Hepatocytes and Stimulating Glucagon-like Peptide-1 Secretion From Enteroendocrine Cells” (Frontiers in Pharmacology, 2021).
# Where two headings read alike, the source gives them in different places.
# What was measured:
# human FXR = target: T1, human FXR (Homo sapiens, UniProt Q96RI1); experiment: FXR luciferase reporter gene assay (FXRE-luc) in HepG2 cells, antagonistic mode; type: cell-based; settings: for remaining activity at 10 µM: tested compound 10 µM; for capacity to antagonize OCA-stimulated FXR activation (in words): Figure 3B; for remaining activity at 40 µM: tested compound 40 µM, * = significant effect on cellular viability
# T1 sequence (Q96RI1 1-486): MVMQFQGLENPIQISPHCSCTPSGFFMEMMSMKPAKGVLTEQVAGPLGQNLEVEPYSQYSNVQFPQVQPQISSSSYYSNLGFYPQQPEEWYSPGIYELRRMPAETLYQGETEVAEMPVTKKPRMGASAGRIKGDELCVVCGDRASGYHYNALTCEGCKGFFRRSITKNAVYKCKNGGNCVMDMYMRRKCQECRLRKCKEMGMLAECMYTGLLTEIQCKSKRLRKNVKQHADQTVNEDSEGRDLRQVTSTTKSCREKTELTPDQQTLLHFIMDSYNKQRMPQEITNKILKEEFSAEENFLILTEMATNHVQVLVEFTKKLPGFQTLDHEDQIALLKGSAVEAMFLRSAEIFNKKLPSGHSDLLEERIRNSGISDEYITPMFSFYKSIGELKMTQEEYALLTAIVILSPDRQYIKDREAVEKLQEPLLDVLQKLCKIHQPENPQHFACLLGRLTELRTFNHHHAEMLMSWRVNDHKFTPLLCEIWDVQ
# T1 sequence (P19793 1-462 partner): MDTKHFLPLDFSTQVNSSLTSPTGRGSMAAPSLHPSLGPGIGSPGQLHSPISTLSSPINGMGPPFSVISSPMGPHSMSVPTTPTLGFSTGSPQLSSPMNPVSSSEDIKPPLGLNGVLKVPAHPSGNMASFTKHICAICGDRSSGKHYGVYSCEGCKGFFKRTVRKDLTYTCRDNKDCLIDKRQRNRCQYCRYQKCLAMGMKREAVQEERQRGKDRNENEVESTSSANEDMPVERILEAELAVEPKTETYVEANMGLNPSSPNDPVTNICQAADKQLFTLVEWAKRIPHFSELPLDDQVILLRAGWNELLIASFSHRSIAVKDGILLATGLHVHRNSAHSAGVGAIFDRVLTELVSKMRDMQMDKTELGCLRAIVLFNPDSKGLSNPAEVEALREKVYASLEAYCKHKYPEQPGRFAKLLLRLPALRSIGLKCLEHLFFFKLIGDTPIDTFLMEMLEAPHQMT
# GPBAR1 = target: T2, GPBAR1 (Homo sapiens, UniProt Q8TDU6); experiment: GPBAR1 CRE-luc luciferase reporter assay in HepG2 cells; type: cell-based; settings: 10 µM, 5 h, LCA 10 µM set as 100%
# T2 construct: host or cells: HepG2
# T2 sequence (Q8TDU6 1-330): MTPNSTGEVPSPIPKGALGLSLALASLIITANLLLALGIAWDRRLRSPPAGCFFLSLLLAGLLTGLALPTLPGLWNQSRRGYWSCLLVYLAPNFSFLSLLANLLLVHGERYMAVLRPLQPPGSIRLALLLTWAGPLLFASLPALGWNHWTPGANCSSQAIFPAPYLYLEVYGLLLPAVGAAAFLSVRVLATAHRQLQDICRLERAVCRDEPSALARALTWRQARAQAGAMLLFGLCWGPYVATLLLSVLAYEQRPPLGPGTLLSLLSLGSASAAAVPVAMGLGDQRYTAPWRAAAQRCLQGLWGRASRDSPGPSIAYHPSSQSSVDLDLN
# Procedure: (C) Effects of LCA and 7-ELCA (both at 10 µM) on intracellular generation of cAMP in differentiated NCI-H716 cells after 30 min treatment. The increase in cAMP level (ΔcAMP) is presented as the difference between cAMP concertation in the treated sample after subtraction of the cAMP in the nontreated control sample. (D) Concentration-response curves for activation of GPBAR1 by LCA and 7-ELCA. EC50 values were calculated using nonlinear fitting of concentration-response curves. […] GLP-1 was normalized to protein concentration and GPBAR1 mRNA expression to GAPDH mRNA. Data are presented as a fold to control nontreated (NT) samples. Forskolin (FSK, 10 µM) was used as a GPBAR1-independent activator of cAMP production.
# AML12 = experiment: MTS viability assay; type: cell-based, murine; settings: Mus musculus; AML12, 24 h, MTS; read-out: IC50 (µM), cell viability
# Procedure: (§1) The potential cytotoxicity of 7-alkylated chenodeoxycholic acid derivatives were assessed in different human (HepG2, HepaRG and Huh7) and murine (AML12) hepatocyte-derived cell lines. For this purpose, hepatic cells were treated at increasing concentration for 24h and analyzed by MTS viability assay.
# (§2) Table S2. Cell viability was determined using the Cell Titer 96 Aqueous One Solution Cell Proliferation Assay (MTS assay) after treatment with test compounds for 24 h in four different hepatic cell lines. Vehicle (0.1% DMSO) and background (10% SDS; v/v, toxic control) controls of cell viability were set to be 100% and 0%, respectively.
# MTS viability assay [1] = type: cell-based, murine; settings: mouse, AML12 cells; AML12, 24 h, vehicle = 100%
# Procedure: as §1, §2
# Huh7 = experiment: MTS viability assay; type: cell-based, human; settings: Homo sapiens, Huh-7; Huh7, 24 h, MTS; read-out: IC50 (µM), cell viability
# Procedure: as §1, §2
# HepG2 = experiment: MTS viability assay; type: cell-based, human; settings: Homo sapiens; HepG2, 24 h, MTS; read-out: IC50 (µM), cell viability
# Procedure: as §1, §2
# MTS viability assay [2] = type: cell-based, human; settings: human, vehicle = 100%
# Procedure: as §1, §2
# HepaRG = experiment: MTS viability assay; type: cell-based, human; settings: Homo sapiens, 24 h, MTS, read-out: IC50 (µM), cell viability
# Procedure: as §1, §2
# FXR LBD = target: T3, FXR LBD (Homo sapiens, UniProt Q96RI1); experiment: LanthaScreen TR-FRET FXR Coactivator Assay, antagonistic mode (SRC-2 peptide recruitment); type: biochemical
# T3 construct: purchased ThermoFisher Scientific PV4833
# T3 sequence (Q96RI1 262-486 limits assumed): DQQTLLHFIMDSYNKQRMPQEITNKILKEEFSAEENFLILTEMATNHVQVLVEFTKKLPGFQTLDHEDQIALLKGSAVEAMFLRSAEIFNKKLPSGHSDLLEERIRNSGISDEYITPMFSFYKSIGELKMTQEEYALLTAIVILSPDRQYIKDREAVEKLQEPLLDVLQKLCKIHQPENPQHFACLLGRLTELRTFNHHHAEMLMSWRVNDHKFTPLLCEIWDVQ
# Procedure: The LanthaScreen® TR-FRET FXR Coactivator Assay (goat, PV4833, ThermoFisher Scientific) was performed to assess the affinity of tested compounds to FXR ligand-binding domain (LBD) in agonistic and antagonistic models. In the antagonistic assays, the FXR LBD was co-incubated with OCA or GW4064, together with tested ligands in increasing concentrations. The assay was performed according to the manufacturer’s protocols. […] Data have been obtained from three independent experiments performed in 4 replicates.
# [3] = HepG2, GW4064 1 µM, read-out: relative response (%) to the model FXR ligand activation (set to be 100%), GW4064 1 µM
# [4] = HepG2, CDCA 20 µM, read-out: relative response (%) to the model FXR ligand activation (set to be 100%), CDCA 20 µM
Compound,remaining activity at 10 µM (human FXR; [3]) [%],capacity to antagonize OCA-stimulated FXR activation (in words) (human FXR; with 1 µM OCA),CRE-luc activation compared to LCA (in words) (GPBAR1),IC50 (AML12) [µM],"viability at 24 h, 10 µM (MTS viability assay [1]) [%]",IC50 (Huh7) [µM],IC50 (HepG2) [µM],"viability at 24 h, 10 µM (MTS viability assay [2]; HepG2 cells, HepG2, 24 h) [%]","viability at 24 h, 10 µM (MTS viability assay [2]; HepaRG cells) [%]","viability at 24 h, 10 µM (MTS viability assay [2]; Huh7 cells, Huh7, 24 h) [%]",IC50 (HepaRG) [µM],remaining activity at 40 µM (human FXR; [4]) [%],remaining activity at 40 µM (human FXR; [3]) [%],"IC50 (FXR LBD; GW4064 1 µM, read-out: IC50, inhibition of GW4064-promoted interaction of SRC-2 and FXR) [µM]","IC50 (FXR LBD; OCA 1 µM, read-out: IC50, inhibition of OCA-induced recruitment of SRC-2 to FXR LBD) [µM]","IC50 (human FXR; HepG2, co-treatment with 1 µM OCA, 24 h, read-out: IC50, inhibition of OCA-induced FXR activation) [µM]","inhibition at 100 µM (human FXR; HepG2, at 100 µM, with 1 µM OCA, read-out: inhibition of FXR activation) [%]"
"C=CCCC[C@@]1(O)C[C@@H]2C[C@H](O)CC[C@]2(C)C2CC[C@@]3(C)C(CC[C@@H]3[C@H](C)CCC(=O)O)C21 (stereo partly drawn) [2j, 3α,7α-Dihydroxy-7β-(pent-4-en)-5β-cholan-24-oic acid]",93.6 ± 2.8,maintained,weak or no ability to act as agonists of GPBAR1,75,127 ± 7.1,34 ± 1.5,77.3 ± 1.2,87.8 ± 6.7,93.1 ± 4.4,114 ± 7,76.5,–,–,–,–,–,–
"C=CC[C@@]1(O)C[C@@H]2C[C@H](O)CC[C@]2(C)C2CC[C@@]3(C)C(CC[C@@H]3[C@H](C)CCC(=O)O)C21 (stereo partly drawn) [2g, 3α,7α-Dihydroxy-7β-allyl-5β-cholan-24-oic acid]",93.2 ± 0.6,maintained,comparable activities to LCA,161,109 ± 3.2,> 100,162 ± 2.1,97.7 ± 9.1,126 ± 4.5,93.5 ± 10,> 200,107.2 ± 0.3,74.4 ± 4.4,–,–,–,–
"C#C[C@@]1(O)C[C@@H]2C[C@H](O)CC[C@]2(C)C2CC[C@@]3(C)C(CC[C@@H]3[C@H](C)CCC(=O)O)C21 (stereo partly drawn) [2e, 3α,7α-Dihydroxy-7β-ethynyl-5β-cholan-24-oic acid]",80.3 ± 3.9,only minor antagonist activity,weak or no ability to act as agonists of GPBAR1,> 200,97.5 ± 6.6,> 200,> 200,96.5 ± 4.1,92.9 ± 6.5,103 ± 4.4,> 200,114.8 ± 0.7,64.8 ± 4.9,–,–,–,–
"C[C@H](CCC(=O)O)[C@H]1CCC2C3C(CC[C@@]21C)[C@@]1(C)CC[C@@H](O)C[C@H]1C[C@@]3(C)O (stereo partly drawn) [2b, 3α,7α-Dihydroxy-7β-methyl-5β-cholan-24-oic acid]",85 ± 7.7,–,–,> 200,108 ± 7.7,> 200,> 200,99.7 ± 1.2,119.5 ± 1,106 ± 5.8,> 200,112 ± 1.6,64.9 ± 5,–,–,–,–
"CC[C@@]1(O)C[C@@H]2C[C@H](O)CC[C@]2(C)C2CC[C@@]3(C)C(CC[C@@H]3[C@H](C)CCC(=O)O)C21 (stereo partly drawn) [2c, 3α,7α-Dihydroxy-7β-ethyl-5β-cholan-24-oic acid]",89 ± 6,–,–,> 200,105 ± 2,> 200,> 200,100 ± 3.9,117 ± 1.3,113 ± 4.8,> 200,67.1 ± 9.2,75.3 ± 2.5,–,–,–,–
"CC(CCC(=O)O)C1CCC2C3C(CCC12C)C1(C)CCC(O)CC1CC3(O)C(C)C (stereo not drawn) [2h, 3α,7α-Dihydroxy-7β-isopropyl-5β-cholan-24-oic acid]",91.4 ± 5.3,–,–,143,94 ± 3.7,> 100,103.3 ± 1,93.4 ± 7.4,101 ± 6.9,97.6 ± 7.3,181,47.6 ± 0.3,63 ± 8.2,35.2 ± 5.4,25 ± 3.7,17.5 ± 1.7,~90
"C=C[C@@]1(O)C[C@@H]2C[C@H](O)CC[C@]2(C)C2CC[C@@]3(C)C(CC[C@@H]3[C@H](C)CCC(=O)O)C21 (stereo partly drawn) [2d, 3α,7α-Dihydroxy-7β-vinyl-5β-cholan-24-oic acid]",93.9 ± 6.6,maintained,–,> 200,106 ± 3.9,> 100,168.8 ± 1,95.9 ± 8.3,104 ± 2.4,117 ± 5.6,> 200,80.2 ± 0.4,75.2 ± 4.6,–,–,–,–
